Laboratory results reported in ChEMBL document CHEMBL1201862, “PubChem BioAssay data set” (2004).
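Tested at 5 concentrations; 48 h exposure; 96-well plates; endpoints linearly interpolated, else capped at highest concentration. At the GI50, growth is halved.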 Calls of active or inactive are those of the source. Cut-off read from the data, not from the text of the source: active = GI50 up to about 1.1 µM and inactive = higher.

Key:
Assay in all cases: NCI anticancer screen, dose series, 48 h
786-0 = system: 786-0
A498 = system: A498
A549 = system: A549
HOP-92 = system: HOP-92
HT-29 = system: HT-29
IGROV-1 = system: IGROV-1
MCF7 = system: MCF7
MDA-N = system: MDA-N
Malme-3M = system: Malme-3M
NCI-H226 = system: NCI-H226
NCI-H23 = system: NCI-H23
NCI-H522 = system: NCI-H522
OVCAR-5 = system: OVCAR-5
SF-295 = system: SF-295
SK-MEL-28 = system: SK-MEL-28
SK-MEL-5 = system: SK-MEL-5
SN12C = system: SN12C
SW-620 = system: SW-620
U-251 = system: U-251

Structure (SMILES) | GI50 (786-0) | GI50 (A498) | GI50 (A549) | GI50 (HOP-92) | GI50 (HT-29) | GI50 (IGROV-1) | GI50 (MCF7) | GI50 (MDA-N) | GI50 (Malme-3M) | GI50 (NCI-H226) | GI50 (NCI-H23) | GI50 (NCI-H522) | GI50 (OVCAR-5) | GI50 (SF-295) | GI50 (SK-MEL-28) | GI50 (SK-MEL-5) | GI50 (SN12C) | GI50 (SW-620) | GI50 (U-251)
O=C1NCN(c2ccccc2)C12CCN(CCCN1CCN(CCOC(c3ccc(F)cc3)c3ccc(F)cc3)CC1)CC2 | 1.63 µM (inactive) | 1.84 µM (inactive) | 2.03 µM (inactive) | 1.64 µM (inactive) | 1.26 µM (inactive) | 1.98 µM (inactive) | 1.92 µM (inactive) | 1.82 µM (inactive) | 1.37 µM (inactive) | 1.86 µM (inactive) | 3.51 µM (inactive) | 1.9 µM (inactive) | 3.15 µM (inactive) | 1.83 µM (inactive) | 2.47 µM (inactive) | 1.69 µM (inactive) | 1.96 µM (inactive) | 2.61 µM (inactive) | 1.92 µM (inactive)
C/C=C(\C)c1cc(=O)c2c(C)cc3c(c2o1)C(OC)(OC(C)=O)c1c(O)c(C2CC(C)(N(C)C)C(OC(C)=O)C(C)O2)cc(C2CC(N(C)C)C(OC(C)=O)C(C)O2)c1C3=O (stereo unspecified) | 0.288 µM (active) | 1.27 µM (inactive) | 0.514 µM (active) | 1.28 µM (inactive) | 0.489 µM (active) | 1.61 µM (inactive) | 1.64 µM (inactive) | 1.64 µM (inactive) | 0.544 µM (active) | 1.34 µM (inactive) | 1.02 µM (active) | 0.254 µM (active) | 2.17 µM (inactive) | 0.942 µM (active) | 3.77 µM (inactive) | 1.51 µM (inactive) | 0.893 µM (active) | 0.237 µM (active) | 0.914 µM (active)
CC1OC(OC2C(O[C@@H]3C[C@@H]4CC[C@@H]5[C@H](CC[C@]6(C)C7C(C[C@@H]56)O[C@]5(CC[C@@H](C)CO5)[C@H]7C)[C@@]4(C)C[C@H]3O)OC(CO)C(O)C2O)C(O)C(O)C1O (stereo partly specified) | 1.82 µM (inactive) | 2.3 µM (inactive) | 1.86 µM (inactive) | 2.8 µM (inactive) | 1.62 µM (inactive) | 1.73 µM (inactive) | 1.85 µM (inactive) | 2.47 µM (inactive) | 1.82 µM (inactive) | 2.84 µM (inactive) | 1.82 µM (inactive) | 1.89 µM (inactive) | 1.57 µM (inactive) | 1.83 µM (inactive) | 1.85 µM (inactive) | 2.09 µM (inactive) | 1.71 µM (inactive) | 1.93 µM (inactive) | 1.68 µM (inactive)
Cc1ccc(NC(=O)CC(=O)N2N=C(c3ccccc3)C(/N=N/c3ccc(S(=O)(=O)CCOS(=O)(=O)O)cc3)C2=O)cc1 (stereo unspecified) | 60.5 µM (inactive) | > 100 µM (inactive) | > 100 µM (inactive) | > 100 µM (inactive) | > 100 µM (inactive) | 41.6 µM (inactive) | 65.9 µM (inactive) | > 100 µM (inactive) | > 100 µM (inactive) | > 100 µM (inactive) | 23.6 µM (inactive) | 58.6 µM (inactive) | > 100 µM (inactive) | > 100 µM (inactive) | > 100 µM (inactive) | > 100 µM (inactive) | > 100 µM (inactive) | > 100 µM (inactive) | 41.8 µM (inactive)
Cc1oc2c(c1C)S(=O)(=O)C(C#N)=C(c1ccccc1)N2 | > 100 µM (inactive) | > 100 µM (inactive) | > 100 µM (inactive) | > 100 µM (inactive) | > 100 µM (inactive) | > 100 µM (inactive) | > 100 µM (inactive) | > 100 µM (inactive) | 63.5 µM (inactive) | > 100 µM (inactive) | > 100 µM (inactive) | > 100 µM (inactive) | > 100 µM (inactive) | > 100 µM (inactive) | > 100 µM (inactive) | > 100 µM (inactive) | > 100 µM (inactive) | > 100 µM (inactive) | > 100 µM (inactive)
O=C(N/N=C/c1ccc2c(c1)OCO2)Nc1ccccc1Cl | 3.69 µM (inactive) | 1.95 µM (inactive) | 3.33 µM (inactive) | 6.24 µM (inactive) | 0.8 µM (active) | 0.622 µM (active) | 0.469 µM (active) | 0.161 µM (active) | 0.946 µM (active) | 4.19 µM (inactive) | 1.66 µM (inactive) | 0.233 µM (active) | 8 µM (inactive) | 0.47 µM (active) | 9.95 µM (inactive) | 1.35 µM (inactive) | 0.847 µM (active) | 0.708 µM (active) | 2.68 µM (inactive)
O=C(/C=C1\Sc2ccccc2N=C1CC(=O)c1ccccc1)c1ccccc1 | 3.51 µM (inactive) | 31.8 µM (inactive) | 5.33 µM (inactive) | 3.35 µM (inactive) | 8.49 µM (inactive) | 3.61 µM (inactive) | 4.19 µM (inactive) | 8.22 µM (inactive) | 3.25 µM (inactive) | 7.1 µM (inactive) | 35.6 µM (inactive) | 15.8 µM (inactive) | 12.8 µM (inactive) | 3.64 µM (inactive) | 8.89 µM (inactive) | 2.61 µM (inactive) | 3.88 µM (inactive) | 3.97 µM (inactive) | 2.01 µM (inactive)
COC(=O)c1c(O)ccc2c1c1c(n2Cc2cccc(C)c2)C(=O)c2ccccc2C1=O | 11.9 µM (inactive) | 17.7 µM (inactive) | 6.97 µM (inactive) | 6.61 µM (inactive) | 4.07 µM (inactive) | 11.4 µM (inactive) | 5.37 µM (inactive) | 13.1 µM (inactive) | 16.7 µM (inactive) | 17.4 µM (inactive) | 11.4 µM (inactive) | 11.5 µM (inactive) | 22.5 µM (inactive) | 13 µM (inactive) | 15.3 µM (inactive) | 13.1 µM (inactive) | 7.76 µM (inactive) | 14.2 µM (inactive) | 11.6 µM (inactive)
O=C1N/C(=N/N=C\C(O)C(O)C(O)C(O)CO)N/C1=C\c1ccc(Cl)cc1 (stereo unspecified) | 5.9 µM (inactive) | 11.5 µM (inactive) | 27.2 µM (inactive) | 1.8 µM (inactive) | 17.4 µM (inactive) | 12.4 µM (inactive) | 4.3 µM (inactive) | 0.968 µM (active) | 2.76 µM (inactive) | 3 µM (inactive) | 5.32 µM (inactive) | 2.75 µM (inactive) | 19.5 µM (inactive) | 9.23 µM (inactive) | 8.55 µM (inactive) | 17 µM (inactive) | 1.51 µM (inactive) | 8.87 µM (inactive) | 2.15 µM (inactive)
Oc1ncc(Cl)c(O)n1 | > 100 µM (inactive) | > 100 µM (inactive) | > 100 µM (inactive) | > 100 µM (inactive) | > 100 µM (inactive) | > 100 µM (inactive) | > 100 µM (inactive) | > 100 µM (inactive) | > 100 µM (inactive) | > 100 µM (inactive) | > 100 µM (inactive) | > 100 µM (inactive) | > 100 µM (inactive) | > 100 µM (inactive) | > 100 µM (inactive) | > 100 µM (inactive) | > 100 µM (inactive) | > 100 µM (inactive) | > 100 µM (inactive)
C1CSCCCSCCCSCCCSCCCSCCCSCCCSCCCSC1 | > 100 µM (inactive) | > 100 µM (inactive) | > 100 µM (inactive) | > 100 µM (inactive) | > 100 µM (inactive) | > 100 µM (inactive) | > 100 µM (inactive) | > 100 µM (inactive) | > 100 µM (inactive) | 82.2 µM (inactive) | > 100 µM (inactive) | > 100 µM (inactive) | > 100 µM (inactive) | > 100 µM (inactive) | > 100 µM (inactive) | 85.9 µM (inactive) | > 100 µM (inactive) | > 100 µM (inactive) | > 100 µM (inactive)
Fc1ccc(C(OCCN2CCC3CCC(C2)N3Cc2cc3ccccc3[nH]2)c2ccc(F)cc2)cc1 (stereo unspecified) | 1.65 µM (inactive) | 1.47 µM (inactive) | 2.01 µM (inactive) | 1.84 µM (inactive) | 1.08 µM (active) | 1.38 µM (inactive) | 1.79 µM (inactive) | 1.73 µM (inactive) | 1.58 µM (inactive) | 1.83 µM (inactive) | 1.58 µM (inactive) | 1.47 µM (inactive) | 1.74 µM (inactive) | 1.96 µM (inactive) | 1.61 µM (inactive) | 1.72 µM (inactive) | 1.68 µM (inactive) | 1.56 µM (inactive) | 1.87 µM (inactive)
CN(C)c1ccc(/C=C(/NC(=O)c2ccccc2)C(=O)Nc2ccccc2C(=O)O)cc1 | > 100 µM (inactive) | 57 µM (inactive) | > 100 µM (inactive) | > 100 µM (inactive) | > 100 µM (inactive) | > 100 µM (inactive) | > 100 µM (inactive) | > 100 µM (inactive) | > 100 µM (inactive) | > 100 µM (inactive) | > 100 µM (inactive) | > 100 µM (inactive) | > 100 µM (inactive) | > 100 µM (inactive) | > 100 µM (inactive) | > 100 µM (inactive) | > 100 µM (inactive) | > 100 µM (inactive) | > 100 µM (inactive)
COC(=O)c1ccccc1CC(Cc1ccc2c(c1)CCC2)C(=O)OC (stereo unspecified) | > 100 µM (inactive) | > 100 µM (inactive) | > 100 µM (inactive) | > 100 µM (inactive) | 50.6 µM (inactive) | > 100 µM (inactive) | > 100 µM (inactive) | 62.4 µM (inactive) | 33.3 µM (inactive) | 57.5 µM (inactive) | > 100 µM (inactive) | 66.1 µM (inactive) | > 100 µM (inactive) | > 100 µM (inactive) | > 100 µM (inactive) | 32.4 µM (inactive) | > 100 µM (inactive) | > 100 µM (inactive) | > 100 µM (inactive)
